From patent publication US20230355597A1, “COMPOUNDS, COMPOSITIONS, AND METHODS FOR THE TREATMENT AND PREVENTION OF AVIAN PATHOGENIC E. COLI (APEC)” (OHIO STATE INNOVATION FOUNDATION, priority 2018, published 2023)
Values after ≈ are worked out from the molar mass of the structure shown. Marks after values point to notes of the source that are not given here.

Legend:
APEC O115 = type: cell-based, avian pathogenic Escherichia coli (APEC); conditions: APEC O115, M63 media; MIC/MBC
APEC O78 [1] = assay: Loss of 260/280 nm absorbing materials assay; type: cell-based, avian pathogenic Escherichia coli (APEC); conditions: 2X MBC, 1 h, *P<0.05 vs DMSO; for Absorbance 260: 260 nm absorbing material in supernatant; for Absorbance 280: 280 nm absorbing material in supernatant
APEC O1 = type: cell-based, avian pathogenic Escherichia coli (APEC); conditions: APEC O1, M63 media; MIC/MBC
APEC O78 [2] = type: cell-based, avian pathogenic Escherichia coli (APEC); conditions: for MBC relative to MIC: APEC O78; for MIC / MBC: APEC O78, M63 media; for MIC: MIC/MBC; for MBC: cell prints MIC/MBC
APEC O109 = type: cell-based, avian pathogenic Escherichia coli (APEC); conditions: APEC O109, M63 media; MIC/MBC
APEC O15 = type: cell-based, avian pathogenic Escherichia coli (APEC); conditions: APEC O15, M63 media; MIC/MBC
APEC O2-211 = type: cell-based, avian pathogenic Escherichia coli (APEC); conditions: APEC O2-211, M63 media; MIC/MBC
[3] = tested on: intracellular APEC O2 in HD11 cells; assay: Intracellular survival assay (cidal SMs); conditions: O2, HD11, 6 h treatment; superscript = multiple of MIC
[4] = tested on: intracellular APEC O1 in Caco-2 cells; assay: Intracellular survival assay (cidal SMs); conditions: O1, Caco-2, 6 h treatment; superscript = multiple of MIC
[5] = tested on: intracellular APEC O1 in THP-1 cells; assay: Intracellular survival assay (cidal SMs); conditions: O1, THP-1, 6 h treatment; superscript = multiple of MIC
APEC O1-63 = type: cell-based, avian pathogenic Escherichia coli (APEC); conditions: APEC O1-63, M63 media; MIC/MBC
[6] = tested on: intracellular APEC O78 in HD11 cells; assay: Intracellular survival assay (cidal SMs); conditions: O78, HD11, 6 h treatment; superscript = multiple of MIC
APEC O2 = type: cell-based, avian pathogenic Escherichia coli (APEC); conditions: APEC O2, M63 media; MIC/MBC
[7] = tested on: Shiga toxin-producing (STEC) O157 and O26 strains; type: cell-based, E. coli; conditions: 100 µM, M63 media
[8] = tested on: intracellular APEC O78 in Caco-2 cells; assay: Intracellular survival assay (cidal SMs); conditions: O78, Caco-2, 6 h treatment; superscript = multiple of MIC
[9] = tested on: intracellular APEC O2 in THP-1 cells; assay: Intracellular survival assay (cidal SMs); conditions: O2, THP-1, 6 h treatment; superscript = multiple of MIC
[10] = tested on: intracellular APEC O78 in THP-1 cells; assay: Intracellular survival assay (cidal SMs); conditions: O78, THP-1, 6 h treatment; superscript = multiple of MIC
[11] = tested on: intracellular APEC O2 in Caco-2 cells; assay: Intracellular survival assay (cidal SMs); conditions: O2, Caco-2, 6 h treatment; superscript = multiple of MIC
APEC O78 [12] = assay: Confocal microscopy bacterial cytological profiling; type: cell-based, avian pathogenic Escherichia coli (APEC); conditions: 2X MBC
Experimental: Confocal and scanning electron microscopy. Confocal microscopy was used for bacterial cytological profiling (BCP) to identify the cellular pathways targeted by SMs as described previously. […] After incubation, treated cultures were centrifuged, washed, and resuspended in 100 μL PBS. […] Cultures were then centrifuged, washed, and resuspended in PBS to 1⁄10th volume of the original cultures.

APEC O18 = type: cell-based, avian pathogenic Escherichia coli (APEC); conditions: APEC O18, M63 media; MIC/MBC
[13] = tested on: biofilm embedded APEC O78; assay: MBEC High-throughput assay; type: cell-based, avian pathogenic Escherichia coli (APEC); conditions: biofilm embedded APEC O78; superscript = multiple of MIC (footnote)
[14] = tested on: intracellular APEC O1 in HD11 cells; assay: Intracellular survival assay (cidal SMs); conditions: O1, HD11, 6 h treatment; superscript = multiple of MIC
APEC O8 = type: cell-based, avian pathogenic Escherichia coli (APEC); conditions: APEC O8, M63 media; MIC/MBC
Rif^r APEC O78 = assay: In vivo efficacy of growth inhibitors in APEC infected broiler chickens
APEC O78-53 = type: cell-based, avian pathogenic Escherichia coli (APEC); conditions: APEC O78-53, M63 media; MIC/MBC
APEC O35 = type: cell-based, avian pathogenic Escherichia coli (APEC); conditions: APEC O35, M63 media; MIC/MBC

Structure (SMILES): COc1cc(CNCCc2ccc3ccccc3c2)ccc1OCC(O)CN1CCCC1 (stereo not shown) [SM2]
- MBC (APEC O115): 200 µM (≈ 86.9 µg/mL)
- MIC (APEC O115): 200 µM (≈ 86.9 µg/mL)
- Absorbance 260 (APEC O78 [1]): 3.71
- Absorbance 280 (APEC O78 [1]): 2.86*
- MBC (APEC O1): 250 µM (≈ 109 µg/mL)
- MIC (APEC O1): 200 µM (≈ 86.9 µg/mL)
- MBC relative to MIC (APEC O78 [2]): identical to MIC
- MIC (APEC O78 [2]): 100 µM (≈ 43.5 µg/mL)
- MBC (APEC O78 [2]): 100 µM (≈ 43.5 µg/mL)
- MBC (APEC O109): 200 µM (≈ 86.9 µg/mL)
- MIC (APEC O109): 100 µM (≈ 43.5 µg/mL)
- MBC (APEC O15): 100 µM (≈ 43.5 µg/mL)
- MIC (APEC O15): 100 µM (≈ 43.5 µg/mL)
- MBC (APEC O2-211): 100 µM (≈ 43.5 µg/mL)
- MIC (APEC O2-211): 100 µM (≈ 43.5 µg/mL)
- SMs intracellular APEC clearance concentration [3]: 200^b µM
- SMs intracellular APEC clearance concentration [4]: >200 µM
- SMs intracellular APEC clearance concentration [5]: 200^b µM
- MBC (APEC O1-63): 250 µM (≈ 109 µg/mL)
- MIC (APEC O1-63): 200 µM (≈ 86.9 µg/mL)
- SMs intracellular APEC clearance concentration [6]: 100^a µM
- MBC (APEC O2): 250 µM (≈ 109 µg/mL)
- MIC (APEC O2): 200 µM (≈ 86.9 µg/mL)
- activity against STEC O157 and O26 strains [7]: not cidal
- SMs intracellular APEC clearance concentration [8]: 100^a µM
- SMs intracellular APEC clearance concentration [9]: 100^a µM
- SMs intracellular APEC clearance concentration [10]: 100^a µM
- SMs intracellular APEC clearance concentration [11]: >200 µM
- cytological profile (confocal, FM4-64 / SYTO-9) (APEC O78 [12]): membrane pore formers
- MBC (APEC O18): 200 µM (≈ 86.9 µg/mL)
- MIC (APEC O18): 100 µM (≈ 43.5 µg/mL)
- MBEC [13]: 50^b µM
- SMs intracellular APEC clearance concentration [14]: 200b µM
- MBC (APEC O8): 200 µM (≈ 86.9 µg/mL)
- MIC (APEC O8): 100 µM (≈ 43.5 µg/mL)
- reduction of average APEC load in internal organs (Rif^r APEC O78; average of liver, heart, lung and kidney, vs untreated control): 1.3 logs
- cumulative lesions score (Rif^r APEC O78; liver, heart, lung and air-sacs, untreated 6.2): 5.4
- reduction of APEC induced mortality (Rif^r APEC O78; oral gavage twice a day, 5 days, untreated mortality (58.34%) normalized to 100%): 42.86%
- reduction of APEC lesions severity (%), Air-sacs (airsacculitis) (Rif^r APEC O78; untreated control = 100%): 17.7%
- reduction of APEC lesions severity (%), Liver (perihepatitis) (Rif^r APEC O78; untreated control = 100%): 0%
- reduction of APEC load, Heart (Rif^r APEC O78; vs untreated control): 0.8 log CFU/g of tissues
- reduction of APEC load, Kidney (Rif^r APEC O78; vs untreated control): 1.8 log CFU/g of tissues
- reduction of APEC load, Liver (Rif^r APEC O78; vs untreated control): 1.2 log CFU/g of tissues
- reduction of APEC load, Lung (Rif^r APEC O78; vs untreated control): 1.5 log CFU/g of tissues
- Body weight gain (BWG) (Rif^r APEC O78; weight of live chickens before necropsy minus weight before treatment): 125.48±34.66^b
- MBC (APEC O78-53): 200 µM (≈ 86.9 µg/mL)
- MIC (APEC O78-53): 100 µM (≈ 43.5 µg/mL)
- MBC (APEC O35): 200 µM (≈ 86.9 µg/mL)
- MIC (APEC O35): 100 µM (≈ 43.5 µg/mL)

Structure (SMILES): COc1ccc(CCN(Cc2cc3c(cc2Cl)OCO3)CC2CCN(C)CC2)cc1 [SM11]
- MBC (APEC O115): 200 µM (≈ 86.2 µg/mL)
- MIC (APEC O115): 200 µM (≈ 86.2 µg/mL)
- Absorbance 260 (APEC O78 [1]): 4.00*
- Absorbance 280 (APEC O78 [1]): 2.89*
- MBC (APEC O1): 100 µM (≈ 43.1 µg/mL)
- MIC (APEC O1): 100 µM (≈ 43.1 µg/mL)
- MBC relative to MIC (APEC O78 [2]): identical to MIC
- MIC (APEC O78 [2]): 100 µM (≈ 43.1 µg/mL)
- MBC (APEC O78 [2]): 100 µM (≈ 43.1 µg/mL)
- MBC (APEC O109): 200 µM (≈ 86.2 µg/mL)
- MIC (APEC O109): 200 µM (≈ 86.2 µg/mL)
- MBC (APEC O15): 100 µM (≈ 43.1 µg/mL)
- MIC (APEC O15): 100 µM (≈ 43.1 µg/mL)
- MBC (APEC O2-211): 100 µM (≈ 43.1 µg/mL)
- MIC (APEC O2-211): 100 µM (≈ 43.1 µg/mL)
- SMs intracellular APEC clearance concentration [3]: 200^b µM
- SMs intracellular APEC clearance concentration [4]: >200 µM
- SMs intracellular APEC clearance concentration [5]: >200 µM
- MBC (APEC O1-63): 200 µM (≈ 86.2 µg/mL)
- MIC (APEC O1-63): 100 µM (≈ 43.1 µg/mL)
- SMs intracellular APEC clearance concentration [6]: 100^a µM
- MBC (APEC O2): 200 µM (≈ 86.2 µg/mL)
- MIC (APEC O2): 100 µM (≈ 43.1 µg/mL)
- activity against STEC O157 and O26 strains [7]: not cidal
- SMs intracellular APEC clearance concentration [8]: 100^a µM
- SMs intracellular APEC clearance concentration [9]: 100^a µM
- SMs intracellular APEC clearance concentration [10]: 100^a µM
- SMs intracellular APEC clearance concentration [11]: 200^b µM
- cytological profile (confocal, FM4-64 / SYTO-9) (APEC O78 [12]): membrane pore formers
- MBC (APEC O18): 200 µM (≈ 86.2 µg/mL)
- MIC (APEC O18): 200 µM (≈ 86.2 µg/mL)
- MBEC [13]: 400^d µM
- SMs intracellular APEC clearance concentration [14]: 200^b µM
- MBC (APEC O8): 200 µM (≈ 86.2 µg/mL)
- MIC (APEC O8): 200 µM (≈ 86.2 µg/mL)
- MBC (APEC O78-53): 200 µM (≈ 86.2 µg/mL)
- MIC (APEC O78-53): 100 µM (≈ 43.1 µg/mL)
- MBC (APEC O35): 200 µM (≈ 86.2 µg/mL)
- MIC (APEC O35): 100 µM (≈ 43.1 µg/mL)
